In assay [1] the target is T1, Peroxisome proliferator-activated receptor gamma (Homo sapiens) (UniProt P37231).
T1 sequence (whole entry): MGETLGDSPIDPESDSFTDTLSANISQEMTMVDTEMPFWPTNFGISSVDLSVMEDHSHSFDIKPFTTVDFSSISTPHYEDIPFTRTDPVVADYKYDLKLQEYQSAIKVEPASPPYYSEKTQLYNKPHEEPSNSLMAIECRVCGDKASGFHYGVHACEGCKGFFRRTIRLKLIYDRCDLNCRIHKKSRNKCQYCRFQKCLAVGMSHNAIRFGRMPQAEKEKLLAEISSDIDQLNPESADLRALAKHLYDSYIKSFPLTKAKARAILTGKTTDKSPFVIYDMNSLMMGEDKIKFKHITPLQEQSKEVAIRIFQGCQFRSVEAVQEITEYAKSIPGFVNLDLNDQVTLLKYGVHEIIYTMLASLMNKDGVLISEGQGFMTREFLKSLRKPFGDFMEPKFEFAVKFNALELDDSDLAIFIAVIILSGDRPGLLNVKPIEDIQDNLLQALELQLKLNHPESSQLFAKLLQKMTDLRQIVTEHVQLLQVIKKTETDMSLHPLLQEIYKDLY
The assay is described as follows: Covalent binding affinity to apo PPARgamma ligand binding domain (unknown origin) assessed as adduct formation incubated for 24 hrs by ESI-MS analysis.

For assay [2], the target named is T1, Peroxisome proliferator-activated receptor gamma (Homo sapiens). In words: Covalent binding affinity to apo PPARgamma ligand binding domain (unknown origin) assessed as adduct formation measured within few minutes by ESI-MS analysis.

Activity calls are given as the source filed them. The rule behind the calls is not given here.

In the case of `COc1ccc(NC(=O)C#Cc2ccccc2)cc1CNC(=O)c1ccc(N2CCCCC2)cc1`, in assay [1], the result was Active.

Take `O=C(Nc1ccccc1)c1cc([N+](=O)[O-])ccc1Cl`: the result in assay [2] was Active.

Take `CCCOc1ccc(NC(=O)C#Cc2ccccc2)cc1CNC(=O)c1ccc(-c2ncccn2)cc1`: in assay [1], the outcome was Active.
